The results in this text go back to article PMC10377586 (Biomolecules, 2023).

What is called melting point is the temperature of the solid-liquid transition.

Molecules are shown by their SMILES.

One data set is described as follows: DPPH antioxidant assay. It counts as physicochemical. The following applies: compound at 50 µM. From the text: The 2,2-diphenyl-1-picrylhydrazyl (DPPH) assay was used to determine the antioxidant properties of selected compounds using ascorbic acid, trolox, and quercetin as references. […] From a structural point of view, 21 and 22 share a common pyrimido[2,1-f]purinedione core with propyl or butyl substituents at the N1- and N3-position. Compounds 11i and 11l, containing hexyl or phenoxyethyl as N7-substituents, were the only structures in the groups of bicyclic xanthine derivatives that lacked antioxidant activity in the DPPH assay.
Antioxidant properties of considered structures were evaluated in DPPH test. The assay utilizes a stable free radical 2,2-diphenyl-1-picrylhydrazyl (DPPH). DPPH has a deep violet color in solution and strong absorption band at 520 nm. The antioxidant activity of the tested compounds was defined by their ability to induce the formation of the reduced form of DPPH. Upon reduction, DPPH color turned pale yellow, which manifested by decreased sample absorption at 520 nm and was measured in conducted experiments using EnSpire microplate reader (PerkinElmer). Antioxidant activity of xanthine derivatives and reference compounds was tested in triplicate at 50 µM concentration and normalized to the activity of reference radical scavenger—quercetin.
Figure 2 Antioxidant properties of xanthine derivatives evaluated in the DPPH test. All compounds were tested at 50 µM concentration. Results were normalized to the antioxidant activity measured for quercetin. ASC, ascorbic acid; TLX, trolox; QCT, quercetin.

`CC(C)Cn1c(NCCc2ccc(O)c(O)c2)nc2c1c(=O)n(C)c(=O)n2C` (hydrate or solvate) [Compound 11f, 8-((3,4-Dihydroxyphenethyl)amino)-7-isobutyl-1,3-dimethyl-3,7-dihydro-1H-purine-2,6-dione]: the melting point lay within 201 to 203 °C.

Consider `Cn1c(=O)c2c(nc(NCCc3ccc(O)c(O)c3)n2Cc2ccccc2)n(C)c1=O` (hydrate or solvate) [Compound 11j, 7-Benzyl-8-((3,4-dihydroxyphenethyl)amino)-1,3-dimethyl-3,7-dihydro-1H-purine-2,6-dione], for which the melting point is 214 to 216 °C.

As to `Cn1c(=O)c2c(nc(NCCc3ccc(O)c(O)c3)n2CCc2ccccc2)n(C)c1=O` (hydrate or solvate) [Compound 11k, 8-((3,4-Dihydroxyphenethyl)amino)-1,3-dimethyl-7-phenethyl-3,7-dihydro-1H-purine-2,6-dione], the melting point lay within 180 to 182 °C.

For the molecule `O=C1O[C@H]([C@@H](O)CO)C(O)=C1O` [Ascorbic acid, reference compound], in the data set “DPPH antioxidant assay”, the “Antioxidative Activity [% of Quercetin Response at 50 µM ± SD]” value is listed as 78 ± 1 % of Quercetin Response.

For `Cc1c(C)c2c(c(C)c1O)CCC(C)(C(=O)O)O2` (centres unmarked) [Trolox, reference compound], the “Antioxidative Activity [% of Quercetin Response at 50 µM ± SD]” value in the data set “DPPH antioxidant assay” is reported as 73 ± 1 % of Quercetin Response.
